Source: patent publication US9879029B2, “ERK inhibitors” (Eli Lilly and Company, priority 2014, dated 2018)

Experiments:
[1] = system: human pancreatic cancer cells SW1990; test: Xenograft tumor model SW1990; format: in vivo, female athymic nude mice; conditions: oral
Description: The purpose of this assay is to measure reduction in tumor volume in response to test compound administration. Expand human colorectal cancer cells HCT116 (ATCC, #CCL-247) or human non-small cell lung cancer cells NCI-H358 (ATCC, # CRL-5807) in culture, harvest and inject 5×10e^6 cells in 200 μL of 1:1 HBSS+matrigel solution subcutaneously on to the rear right flank of female athymic nude mice (22-25 gm, Harlan Laboratories). Expand human pancreatic cancer cells SW1990 (ATCC, # CRL-2172) in culture, harvest and inject 2×10e^6 cells in 200 μL of 1:1 HBSS+matrigel solution subcutaneously on to the rear right flank of female athymic nude mice (22-25 gm, Harlan Laboratories). Expand human pancreatic cancer cells MIA PACA-2 (ATCC, # CRL-1420) or human non-small cell lung cancer cells A549 (ATCC, # CCl-185) in culture, harvest and inject 5×10e^6 cells in 200 μL of 1:1 HBSS+matrigel solution subcutaneously on to the rear right flank of female CB-17 SCID mice (22-25 gm, Charles River Laboratories International Inc.). Expand human melanoma cells A-375 (ATCC, # CRL-1619) in culture, harvest and inject 5×10e^6 cells in 200 μL of 1:1 HBSS+matrigel solution subcutaneously on to the rear right flank of female NIH nude rats (140-160 gm, Taconic Farms). […] Tumor response is determined by tumor volume measurement performed twice a week during the course of treatment.

[2] = system: human melanoma cells A-375; test: Xenograft tumor model A-375; format: in vivo, female NIH nude rats; conditions: oral; for Regression (%): p <0.001
Description: The purpose of this assay is to measure reduction in tumor volume in response to test compound administration. Expand human colorectal cancer cells HCT116 (ATCC, #CCL-247) or human non-small cell lung cancer cells NCI-H358 (ATCC, # CRL-5807) in culture, harvest and inject 5×10e^6 cells in 200 μL of 1:1 HBSS+matrigel solution subcutaneously on to the rear right flank of female athymic nude mice (22-25 gm, Harlan Laboratories). Expand human pancreatic cancer cells SW1990 (ATCC, # CRL-2172) in culture, harvest and inject 2×10e^6 cells in 200 μL of 1:1 HBSS+matrigel solution subcutaneously on to the rear right flank of female athymic nude mice (22-25 gm, Harlan Laboratories). Expand human pancreatic cancer cells MIA PACA-2 (ATCC, # CRL-1420) or human non-small cell lung cancer cells A549 (ATCC, # CCl-185) in culture, harvest and inject 5×10e^6 cells in 200 μL of 1:1 HBSS+matrigel solution subcutaneously on to the rear right flank of female CB-17 SCID mice (22-25 gm, Charles River Laboratories International Inc.). Expand human melanoma cells A-375 (ATCC, # CRL-1619) in culture, harvest and inject 5×10e^6 cells in 200 μL of 1:1 HBSS+matrigel solution subcutaneously on to the rear right flank of female NIH nude rats (140-160 gm, Taconic Farms). Measure tumor growth and body weight twice per week beginning the seventh day after the implantation. When tumor sizes reach 200-400 mm^3, randomize animals and group into groups of eight to ten animals. Prepare test compound in an appropriate vehicle (vehicle: 1% HEC/0.25% Tween 80/0.05% Antifoam) and administer by oral gavage for 14 to 28 days. Tumor response is determined by tumor volume measurement performed twice a week during the course of treatment.

COCCN1C(=O)c2cc(-c3ccnc(Nc4ccnn4C)c3)sc2C1(C)C [Example 1, 5-(2-Methoxyethyl)-6,6-dimethyl-2-{2-[(1-methyl-1H-pyrazol-5-yl)amino]pyridin-4-yl}-5,6-dihydro-4H-thieno[2,3-c]pyrrol-4-one]
Delta T/C (%) ([1]; SW1990, 10 mg/kg BID, p 0.364): 24% | Delta T/C (%) ([1]; SW1990, 30 mg/kg BID, p 0.005): 64% | Regression (%) ([2]; A-375, 3 mg/kg BID): −60% | Delta T/C (%) ([2]; A-375, 3 mg/kg QD, p 0.852): 10% | Regression (%) ([2]; A-375, 15 mg/kg BID): −47%
